Experimental data as given in article PMC6625891 (ACS infectious diseases, 2019).
≈ marks a conversion by molar mass, not a printed value. Where “and” joins values, the source holds several entries; their conditions need not be identical. Identical values can stand only once. Like-named read-outs stand apart in the source and are kept apart here.

Experiments:
Escherichia coli LeuRS = conditions: read-out: IC50 (E. coli LeuRS); binds to the editing site; cited from earlier work
Gram-negative pathogens = conditions: cited from earlier work
[1] = test system: Mycobacterium tuberculosis; conditions: M. tuberculosis; cited from earlier work
M. tuberculosis LeuRS = conditions: read-out: M. tuberculosis LeuRS IC50; cited from earlier work
[2] = biological target: T1, S. aureus LeuRS (saLeuRS) (Staphylococcus aureus, UniProt Q2FXH2); experiment: radiolabeled LeuRS aminoacylation assay; format: biochemical
T1 sequence (Q2FXH2 1-805): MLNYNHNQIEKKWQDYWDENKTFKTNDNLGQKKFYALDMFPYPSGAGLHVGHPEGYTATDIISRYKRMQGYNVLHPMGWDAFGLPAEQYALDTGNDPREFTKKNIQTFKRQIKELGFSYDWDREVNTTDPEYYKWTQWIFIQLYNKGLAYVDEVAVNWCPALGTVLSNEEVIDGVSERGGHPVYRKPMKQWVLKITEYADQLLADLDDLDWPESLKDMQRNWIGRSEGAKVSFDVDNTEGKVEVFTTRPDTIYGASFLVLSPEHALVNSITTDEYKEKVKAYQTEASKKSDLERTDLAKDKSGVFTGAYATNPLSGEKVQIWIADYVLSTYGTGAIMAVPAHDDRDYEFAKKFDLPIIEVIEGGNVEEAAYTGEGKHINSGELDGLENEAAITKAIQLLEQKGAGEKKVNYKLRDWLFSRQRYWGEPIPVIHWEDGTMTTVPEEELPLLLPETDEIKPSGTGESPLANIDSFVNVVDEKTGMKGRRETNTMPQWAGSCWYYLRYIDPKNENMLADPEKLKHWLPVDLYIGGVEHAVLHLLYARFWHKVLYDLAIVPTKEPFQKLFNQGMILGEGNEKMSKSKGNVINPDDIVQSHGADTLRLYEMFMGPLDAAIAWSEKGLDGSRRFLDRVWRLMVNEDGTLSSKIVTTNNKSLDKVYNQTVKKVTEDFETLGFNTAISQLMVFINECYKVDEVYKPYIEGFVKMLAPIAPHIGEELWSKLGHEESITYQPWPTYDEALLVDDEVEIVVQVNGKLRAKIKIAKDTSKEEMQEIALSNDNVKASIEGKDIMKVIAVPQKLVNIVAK

[3] = Cytotoxicity, MTT cell viability assay; format: cell-based; conditions: monkey, vero cells
[4] = test system: MRSA (ATCC BAA-1762) resistant mutants; conditions: for MIC shift: vs wild-type MRSA
S. aureus = conditions: previously reported; cited from earlier work
saLeuRS = conditions: read-out: IC50 (LeuRS); previously reported; ref 25 (Xia et al.); cited from earlier work
MRSA (ATCC BAA-1762) [5] = experiment: Time-kill experiments
MRSA (ATCC BAA-1762) [6] = experiment: Post-antibiotic effect; conditions: 1 h exposure
[7] = test system: MRSA (ATCC BAA-1762) resistant mutants; experiment: microbe, parasite or virus in culture; conditions: Staphylococcus aureus, ATCCBAA1762|MRSA, read-out: MIC of resistant colonies
MRSA ATCC BAA-1762 = experiment: MIC by broth microdilution; format: cell-based, Staphylococcus aureus
Vero cells = experiment: Cytotoxicity, MTT cell viability assay; format: cell-based; conditions: Vero cells, 24 h, MTT

Question: For `NC[C@H]1OB(O)c2c(OCCCO)cccc21` [AN3365], which IC50 (Escherichia coli LeuRS) is on record?
Answer: 310 nM

Question: And the MIC (Gram-negative pathogens)?
Answer: 0.5 to 4 µg/mL

Question: Which results are given for `CCOc1ccc(Cl)c2c1B(O)OC2CN` (centres unmarked) [AN6426]?
Answer: MIC [1]: 0.13 µM (≈ 0.0314 µg/mL); IC50 (M. tuberculosis LeuRS): 90 nM

Question: Which results are given for `O=[N+]([O-])c1ccc(S(=O)(=O)Nc2ccc3c(c2)B(O)OC3)cc1` [PT638]?
Answer: IC50 [2]: > 100 µM; IC50 (saLeuRS aminoacylation) ([2]; 7 nM saLeuRS, 20 min pre-incubation, triplicate): did not inhibit saLeuRS; CC50 at 24 h [3]: ≥ 100 µg/mL; MIC shift ([4]; mutant strain 1, D343Y saLeuRS): 16-fold; MIC shift ([4]; mutant strain 2, G303S saLeuRS): 8-fold; MIC shift ([4]; mutant strain 3, F233I saLeuRS): 8-fold; MIC of resistant colonies relative to parent strain ([4]; three colonies picked): at least 8 times; MIC against S. aureus (S. aureus): < 0.2 µg/mL; IC50 (saLeuRS): > 200 µM; reduction in cell numbers over 8 h (MRSA (ATCC BAA-1762) [5]; 1 times the MIC): 1.8 log10 cfu/mL; reduction in cell numbers over 8 h (MRSA (ATCC BAA-1762) [5]; 4 times the MIC): 2.2 log10 cfu/mL; reduction in cell numbers over 8 h (MRSA (ATCC BAA-1762) [5]; 16 times the MIC): 2.7 log10 cfu/mL; type of antibacterial activity in time-kill (MRSA (ATCC BAA-1762) [5]; over the course of 8 h): bacteriostatic; duration of the post-antibiotic effect (MRSA (ATCC BAA-1762) [6]; 0.25 × MIC): 0.2 h; duration of the post-antibiotic effect (MRSA (ATCC BAA-1762) [6]; 4 × MIC): 1.5 h; MIC [7]: ≥ 3.12 µg/mL

Question: Which results are given for `Nc1ccc(S(=O)(=O)Nc2ccc3c(c2)B(O)OC3)cc1` [PT662]?
Answer: fold increase in MIC relative to PT638 (MRSA ATCC BAA-1762; MRSA ATCC BAA-1762): 8 fold; MIC MRSA (MRSA ATCC BAA-1762; MRSA ATCC BAA-1762, broth microdilution): 3.1 µg/mL and 3.125 µg/mL; Cytotoxicity Vero cells (IC50) (Vero cells): ≥100 µg/mL
